Target: T1, human metabotropic glutamate 7 receptor (hmGlu7) (Homo sapiens, UniProt Q14831)
T1 construct: expressed in transfected cells
Assay: mGlu7 assay on HEK-expressing human mGlu7: fluorescent cell based-Ca2+ mobilization assay (FLIPR), inhibition of EC80 L-AP4 response
Conditions: HEK-293 cells expressing hmGlu7, EC80 L-AP4; mean of at least three independent experiments in duplicate; read-out: Ca^2+ Flux (mean IC50)
Description: mGlu7 Assay on HEK-Expressing Human mGLU7
The cDNA encoding the human metabotropic glutamate 7 receptor (hmGlu7), (accession number NM_181874.2, NCBI Nucleotide database browser), was subcloned into an expression vector containing also the hygromycin resistance gene. In parallel, the cDNA encoding a G protein allowing redirection of the activation signal to intracellular calcium flux was subcloned into a different expression vector containing also the Puromycin resistance gene. Transfection of both these vectors into HEK293 cells with PolyFect reagent (Qiagen) according to supplier's protocol, and hygromycin and puromycin treatment allowed selection of antibiotic resistant cells which had integrated stably one or more copies of the plasmids. Positive cellular clones expressing hmGlu7 were identified in a functional assay measuring changes in calcium fluxes in response to glutamate and L-AP4 or known mGlu7 orthosteric antagonists.
HEK-293 cells expressing hmGlu7 were maintained in media containing DMEM, Fetal Bovine Serum (10%), GlutaMAX™ (2 mM), penicillin (100 units/mL), streptomycin (100 μg/mL), geneticin (100 μg/mL) and hygromycin-B (40 μg/mL) and puromycin (1 μg/mL) at 37° C. with 5% CO2 in a humidified atmosphere.
Human mGlu7 HEK-293 cells were plated out 24 hours prior to a fluorescent cell-based calcium mobilization assay using FLIPR^384 assay (Molecular Device, Sunnyvale, CA, USA) in black-walled, clear-bottomed, poly-L-ornithine-coated 384-well plates at a density of 25,000 cells/well in a glutamine/glutamate free DMEM medium containing fetal bovine serum (10%), penicillin (100 units/mL), streptomycin (100 μg/mL) and doxycyline (1 μg/ml) at 37° C. with 5% CO2 in a humidified atmosphere.
On the day of the assay, the medium was aspirated and the cells were loaded with a 3 μM solution of Fluo4-AM (LuBioScience, Lucerne, Switzerland) in 0.03% pluronic acid. After 1 hour at 37° C./5% CO2, the non incorporated dye was removed by washing cell plate with the assay buffer. All assays were performed in a pH 7.4 buffered-Solution containing 20 mM HEPES, 143 mM NaCl, 6 mM KCl, 1 mM MgSO4, 1 mM CaCl2, 0.125 mM sulfinpyrazone and 0.1% glucose.
After 10 s of basal fluorescence recording, various concentrations of the compounds of the invention were added to the cells. Changes in fluorescence levels were first monitored for 180 s in order to detect any agonist activity of the compounds. Then the cells were stimulated by an EC80 L-AP4 concentration for an additional 110 s in order to measure inhibiting activities of the compounds of the invention. EC80 L-AP4 concentration is the concentration giving 80% of the maximal glutamate response.
The concentration-response curves of L-AP4 or representative compounds of the present invention were generated using the Prism GraphPad software (Graph Pad Inc, San Diego, USA). The curves were fitted to a four-parameter logistic equation:
(Y=Bottom+(Top−Bottom)/(1+10^((Log IC50−X)*Hill Slope)
allowing determination of IC50 values.
The Table 3 below represents the mean IC50 obtained from at least three independent experiments of selected molecules performed in duplicate.

T1 sequence (Q14831 35-922 isoform Q14831-2 limits assumed): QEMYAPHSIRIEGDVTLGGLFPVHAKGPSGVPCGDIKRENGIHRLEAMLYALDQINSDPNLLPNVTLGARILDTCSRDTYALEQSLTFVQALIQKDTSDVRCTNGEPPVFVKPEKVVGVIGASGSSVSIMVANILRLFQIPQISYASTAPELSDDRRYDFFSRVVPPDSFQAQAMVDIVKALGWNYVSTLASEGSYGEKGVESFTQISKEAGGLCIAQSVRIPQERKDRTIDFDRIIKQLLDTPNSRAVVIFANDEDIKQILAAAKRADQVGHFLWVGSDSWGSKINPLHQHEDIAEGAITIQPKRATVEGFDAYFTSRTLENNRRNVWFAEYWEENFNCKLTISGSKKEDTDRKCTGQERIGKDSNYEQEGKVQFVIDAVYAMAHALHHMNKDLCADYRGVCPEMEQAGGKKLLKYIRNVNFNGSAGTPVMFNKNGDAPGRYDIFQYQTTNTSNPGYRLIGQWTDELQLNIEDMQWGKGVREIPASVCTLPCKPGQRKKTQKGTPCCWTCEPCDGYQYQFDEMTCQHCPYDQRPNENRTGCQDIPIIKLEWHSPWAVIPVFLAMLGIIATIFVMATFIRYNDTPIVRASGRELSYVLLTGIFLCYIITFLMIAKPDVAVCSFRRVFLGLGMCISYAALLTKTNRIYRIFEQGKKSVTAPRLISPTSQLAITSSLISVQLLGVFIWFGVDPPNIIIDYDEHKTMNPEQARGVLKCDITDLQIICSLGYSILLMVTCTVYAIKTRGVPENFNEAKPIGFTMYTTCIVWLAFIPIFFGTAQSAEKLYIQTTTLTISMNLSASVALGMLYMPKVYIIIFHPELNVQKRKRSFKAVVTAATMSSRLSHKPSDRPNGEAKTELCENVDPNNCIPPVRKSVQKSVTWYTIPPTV

| SMILES | IC50 |
| --- | --- |
| COc1cnc(-n2ncc3c(C)c(-c4cccc(OC(F)(F)F)c4)c(C)n3c2=O)nc1 [1-56] | 100 to 1000 nM |
| Cc1c(-c2cccc(N3CCC3)c2)c(C)n2c(=O)n(-c3ccc(F)cn3)ncc12 [1-22] | < 100 nM |
| COc1cccc(-c2c(C)c3cnn(-c4ccccn4)c(=O)n3c2C)c1C [1-4] | 100 to 1000 nM |
| COc1cccc(-c2cc3cnn(-c4ncccn4)c(=O)n3c2C)c1C [1-76] | < 100 nM |
| Cc1c(-c2cccc3c2CCN3C(C)C)cc2cnn(-c3ccccn3)c(=O)n12 [1-66] | 100 to 1000 nM |
| Cc1c(-c2cccc(OC3CC3)c2)c(C)n2c(=O)n(-c3ncc(N4CCC(O)C4)cn3)ncc12 (stereo not drawn) [1-80] | 100 to 1000 nM |
| COc1cccc(-c2cc3cnn(-c4ncccn4)c(=O)n3c2C)c1F [1-112] | 100 to 1000 nM |
| Cc1c(-c2cccc(OC3CC3)c2)c(C)n2c(=O)n(-c3ncccc3F)ncc12 [1-51] | 100 to 1000 nM |
| Cc1c(-c2cccc(N3CCC3)c2)c(C)n2c(=O)n(-c3ncc(OC(F)F)cn3)ncc12 [1-42] | < 100 nM |
| Cc1c(-c2cc3cnn(-c4ncccn4)c(=O)n3c2C)ccnc1OC1CC1 [1-145] | < 100 nM |
| COc1cc(-c2cc3cnn(-c4ncccn4)c(=O)n3c2C)ccc1F [1-111] | < 100 nM |
| COc1nccc(-c2cc3cnn(-c4ccccn4)c(=O)n3c2C)c1F [1-116] | 100 to 1000 nM |
| Cc1c(-c2cccc(F)c2Cl)c(C)n2c(=O)n(-c3ncccn3)ncc12 [1-123] | < 100 nM |
| Cc1c(-c2cccc(N3CCC3)c2)c(C)n2c(=O)n(C)ncc12 [1-12] | 100 to 1000 nM |
| COc1cccc(-c2c(C)c3cnn(-c4ccccn4)c(=O)n3c2C)c1 [1-2] | < 100 nM |
| COc1ccc(-c2c(C)c3cnn(-c4ncccn4)c(=O)n3c2C)c(F)c1 [1-135] | < 100 nM |
| COc1cc(-c2cc3cnn(-c4ncccn4)c(=O)n3c2C)ccn1 [1-114] | < 100 nM |
| Cc1c(-c2cccc3c2OCCN3C)cc2cnn(-c3ncccn3)c(=O)n12 [1-63] | < 100 nM |
| Cc1c(-c2cccc(N3CCC3)c2)c(C)n2c(=O)n(-c3ncc(F)cn3)ncc12 [1-15] | < 100 nM |
| COc1ccc(-c2cc3cnn(-c4ccccn4)c(=O)n3c2C)cn1 [1-142] | 100 to 1000 nM |
| COc1nccc(-c2cc3cnn(-c4ncccn4)c(=O)n3c2C)c1F [1-117] | < 100 nM |
| Cc1c(OC2CC2)cccc1-c1cc2cnn(-c3ccccn3)c(=O)n2c1C [1-84] | 100 to 1000 nM |

| SMILES | IC50 |
| --- | --- |
| Cc1c(-c2cccc(OC(F)(F)F)c2)c(C)n2c(=O)n(-c3ncccn3)ncc12 [1-53, 6,8-dimethyl-3-pyrimidin-2-yl-7-[3-(trifluoromethoxy)phenyl]pyrrolo[1,2-d][1,2,4]triazin-4-one] | 100 to 1000 nM |
| Cc1c(-c2cccc3c2ccn3C)c(C)n2c(=O)n(-c3ncccn3)ncc12 [1-97] | 100 to 1000 nM |
| Cc1c(-c2cc(F)cc(N3CCC3)c2)c(C)n2c(=O)n(-c3ccccn3)ncc12 [1-30] | < 100 nM |
| COc1ccc(-c2c(C)c3cnn(-c4ncccn4)c(=O)n3c2C)c(C)c1 [1-134] | < 100 nM |
| CCOC(=O)c1cnc(-n2ncc3c(C)c(-c4cccc(OC5CC5)c4)c(C)n3c2=O)nc1 [1-19] | 1000 to 10000 nM |
| COc1cccc(-c2c(C)c3cnn(-c4ncccn4)c(=O)n3c2C)c1C [1-95] | 100 to 1000 nM |
| Cc1c(-c2cccc(N3CCC3)c2)c(C)n2c(=O)n(-c3ncc(N)cn3)ncc12 [1-44] | < 100 nM |
| Cc1ccc(N2CCC2)cc1-c1c(C)c2cnn(-c3ccccn3)c(=O)n2c1C [1-16] | 100 to 1000 nM |
| Cc1c(-c2cccc(N3CCC3)c2)c(C)n2c(=O)n(-c3ccncc3)ncc12 [1-6] | 100 to 1000 nM |
| COc1cccc(-c2cc3cnn(-c4ccccn4)c(=O)n3c2C)c1C [1-72] | < 100 nM |
| Cc1c(-c2cccc3c2CCN3C)cc2cnn(-c3ccccn3)c(=O)n12 [1-64] | < 100 nM |
| Cc1c(-c2cccc(OC(F)(F)F)c2)c(C)n2c(=O)n(-c3ncc(F)cn3)ncc12 [1-60] | 100 to 1000 nM |
| Cc1c(-c2cccc(N3CCC3)c2)c(C)n2c(=O)n(Cc3ccccn3)ncc12 [1-9] | 100 to 1000 nM |
| Cc1c(-c2cccc(OC3CC3)c2)c(C)n2c(=O)n(-c3ncc(N4CCOCC4)cn3)ncc12 [1-47, 7-[3-(cyclopropoxy)phenyl]-6,8-dimethyl-3-(5-morpholinopyrimidin-2-yl)pyrrolo[1,2-d][1,2,4]triazin-4-one] | 100 to 1000 nM |
| COc1ccc(F)c(-c2c(C)c3cnn(-c4ncccn4)c(=O)n3c2C)c1 [1-127] | < 100 nM |
| Cc1c(-c2cccc(N3CCC3)c2)c(C)n2c(=O)n(-c3ccc(N4CCOCC4)nc3)ncc12 [1-32] | 100 to 1000 nM |
| Cc1c(-c2cccc3c2CCCN3C2CC2)c(C)n2c(=O)n(-c3ncccn3)ncc12 [1-121] | 100 to 1000 nM |
| CCn1ncc2c(C)c(-c3cccc4c3CCN4C)c(C)n2c1=O [1-100] | 100 to 1000 nM |
| Cc1c(-c2cccc(OC3CC3)c2)cc2cnn(-c3ccccn3)c(=O)n12 [1-83] | 1000 to 10000 nM |
| COc1cc(F)cc(-c2cc3cnn(-c4ccccn4)c(=O)n3c2C)c1 [1-101] | 100 to 1000 nM |
| Cc1c(-c2ccnc(OC(F)F)c2)c(C)n2c(=O)n(-c3ccccn3)ncc12 [1-140] | 100 to 1000 nM |
| Cc1c(-c2cccc(N3CCC3)c2)c(C)n2c(=O)n(-c3ccc(NCCN(C)C)cn3)ncc12 [1-36] | 100 to 1000 nM |

| SMILES | IC50 |
| --- | --- |
| Cc1c(-c2cccc3c2CCN3C2CC2)cc2cnn(-c3ccccn3)c(=O)n12 [1-65] | < 100 nM |
| Cc1c(-c2cccc(OC(F)F)c2)cc2cnn(-c3ccccn3)c(=O)n12 [1-70] | 100 to 1000 nM |
| COc1ccc(-c2c(C)c3cnn(-c4ccccn4)c(=O)n3c2C)cn1 [1-129] | < 100 nM |
| Cc1c(-c2cccc(N3CCC3)c2)c(C)n2c(=O)n(-c3ccc(N(C(=O)OC(C)(C)C)C(=O)OC(C)(C)C)cn3)ncc12 [1-28] | 1000 to 10000 nM |
| Cc1c(-c2ccnc3c2CCN3C)cc2cnn(-c3ccccn3)c(=O)n12 [1-118, 6-methyl-7-(1-methyl-2,3-dihydropyrrolo[2,3-b]pyridin-4-yl)-3-(2-pyridyl)pyrrolo[1,2-d][1,2,4]triazin-4-one] | < 100 nM |
| Cc1c(-c2cccc(OC3CC3)c2Cl)cc2cnn(-c3ccccn3)c(=O)n12 [1-104] | < 100 nM |
| COc1cccc(-c2c(Br)c3cnn(-c4ccccn4)c(=O)n3c2C)c1F [1-115, 8-bromo-7-(2-fluoro-3-methoxy-phenyl)-6-methyl-3-(2-pyridyl)pyrrolo[1,2-d][1,2,4]triazin-4-one] | 100 to 1000 nM |
| COc1cccc(-c2cc3cnn(-c4ccccn4)c(=O)n3c2C)c1F [1-108] | 100 to 1000 nM |
| Cc1c(-c2cccc(OC3CC3)c2)c(C)n2c(=O)n(-c3ncc(Cl)cn3)ncc12 [1-48] | 100 to 1000 nM |
| Cc1c(OC2CC2)cccc1-c1cc2cnn(-c3ncccn3)c(=O)n2c1C [1-85] | 100 to 1000 nM |
| Cc1c(-c2cccc(N3CCC3)c2)c(C)n2c(=O)n(C3CCOCC3)ncc12 [1-5] | 100 to 1000 nM |
| COc1cc(-c2cc3cnn(-c4ccccn4)c(=O)n3c2C)ccn1 [1-106] | < 100 nM |
| Cc1c(OC2CC2)cccc1-c1c(C)c2cnn(-c3ncccn3)c(=O)n2c1C [1-27] | < 100 nM |
| Cc1c(-c2cc3cnn(-c4ccccn4)c(=O)n3c2C)ccnc1OC1CC1 [1-143] | < 100 nM |
| Cc1c(-c2cccc(OC(F)F)c2)cc2cnn(-c3ncccn3)c(=O)n12 [1-74] | < 100 nM |
| COc1ccc(F)c(-c2c(C)c3cnn(-c4ccccn4)c(=O)n3c2C)c1 [1-126] | 100 to 1000 nM |
| Cc1c(OC2CC2)cccc1-c1cc2cnn(-c3ccccn3)c(=O)n2c1 [1-82] | 100 to 1000 nM |
| Cc1ccc(-c2c(C)c3cnn(-c4ncccn4)c(=O)n3c2C)c(C)c1 [1-79] | 1000 to 10000 nM |
| CCn1ncc2c(C)c(-c3cccc4c3CCCN4C)c(C)n2c1=O [1-94] | 100 to 1000 nM |
| Cc1c(OC(F)F)cccc1-c1cc2cnn(-c3ccccn3)c(=O)n2c1C [1-71] | < 100 nM |
| COc1cc(-c2c(C)c3cnn(-c4ncccn4)c(=O)n3c2C)ccn1 [1-139] | 100 to 1000 nM |
| Cc1c(-c2cccc(N3CCC3)c2)c(C)n2c(=O)n(-c3ccccn3)ncc12 [1-3, 7-[3-(azetidin-1-yl)phenyl]-6,8-dimethyl-3-(2-pyridyl)pyrrolo[1,2-d][1,2,4]triazin-4-one] | < 100 nM |

Source: patent US20260184715A1, “NOVEL PYRROLO[1,2-d][1,2,4] TRIAZINONE DERIVATIVES AS NEGATIVE ALLOSTERIC MODULATORS OF MGLU7 RECEPTORS” (Neurosterix Pharma Sarl., priority 2022, published 2026)
